Paper PMC7732531 (Frontiers in Pharmacology, 2020)
Read-outs that look alike come from different tables or passages of the source.

Legend:
[1] = rat, microsomes, 0 h, 1 μM, pH 7.4
[2] = male, rat, in vivo, po, 1 mg/kg; for Plasma concentration: SD
Method: (§3) The surgical procedure for portal vein catheter insertion was performed according to reference ([Matsuda et al., 2012]). Male SD rats (250–280 g) were purchased from Beijing Vital River Laboratory Animal Technology Co., Ltd. (Beijing, China). Rats were anesthetized with 2% pentobarbital sodium (0.2–0.3 mg/100 g) intraperitoneally dosed. Cannulation into the jugular vein was performed by the method of Murakami reported ([Murakami et al., 2003]) with minor modification. Briefly, an incision of ∼0.5 cm near right clavicle was made and the jugular vein was exposed. Next, this vein was cannulated with ∼12.5 cm of silicone gel tubing (0.6 mm I.D. × 0.9 mm O.D., Skillsmodel Inc., Beijing, China). The other side of the tubing was passed through the back skin. 2.5 cm midline incision was made in the abdominal cavity close to ensiform process and the portal vein was detached. To prevent bleeding, the portal vein was ligated temporarily as the catheter was inserted. The silicone tubing (22 cm, 0.6 mm I.D. × 0.9 mm O.D., Skillsmodel Inc., Beijing, China) was inserted immediately and fixed by a purse-string suture on the portal vein. The time to reperfusion was about 1 min after intercepted blood flow. In addition, a catheter with trumpet-shaped opening was used to prevent the catheter from slipping out of the vessel and minimize the effect on blood flow. Another end of the catheter was passed subcutaneously to the skin close to the scapula.
(§4) Blood samples were collected at 0, 0.083, 0.25, 0.5, 1, 2, 4, 6, 8 and 12 h. Blood (approximately 100 µl) was collected from the jugular and portal veins into tubes containing heparin on ice and centrifuged within 1 h of collection. Plasma was harvested and stored at −20°C for bioanalysis.
(§5) FaFg was calculated using mass balance method and rat portal blood flow (Qpv) of 32 ml/min/kg, where Rb/p is used to convert plasma concentrations to blood concentrations.

[3] = in vivo; conditions: male, rat, po, 1 mg/kg
Method: as §3, §4, §5

[4] = test system: Caco-2 cells; assay: in vitro
Method: (§1) Caco-2 cell lines were cultured (ATCC, Manassas, VA, United States) as described previously ([Liu et al., 2014]). Briefly, the cells were cultured at 37°C in 5% CO2 at 90% humidity in DMEM high glucose medium containing 20% fetal bovine serum, 1% nonessential amino acids, 100 U/ml penicillin and 1% streptomycin. For the efflux studies, the cells were seeded onto polyethylene terephthalate Millicell® cell culture inserts (0.4 μm pore size, 6.5 mm diameter, Millipore Corporation, Billerica, MA, United States) at a density of 1.7 × 10^5 cells/ml. The culture medium was refreshed on the day after seeding, after which it was refreshed every other day and on the day before the transport experiment. The cells were cultured for 20–22 days after seeding and then evaluated by measuring the transepithelial electrical resistance (TEER) (Millicell ERS®, Millipore Corporation) before experiments. […] Transepithelial permeability studies for YL-IPA08 (10 μM) were conducted from apical to basolateral side (A-B) and basolateral to apical side (B-A) for 120 min 0.2% BSA was included in the receiver solution to avoid nonspecific binding. At 60, 90, and 120 min, half volume of solution from receiver side was withdrawn, and same volume of HBSS was immediately added. Obtained samples were precipitated by adding 4× volumes of acetonitrile containing IS and centrifuged. The supernatants were stored in −20°C until further analysis by LC-MS/MS.
(§2) The in vitro t1/2 in liver microsomal incubation was calculated from the semi-log plot of percentage remaining vs. incubation time and intrinsic clearance (Clint, ml/min/mg protein) was calculated as Eq. 1: CLint=0.693/in vitro t1/2×volume of incubation (μl)/amount of microsomal protein in incubation (mg) (1) ([Suzuki et al., 2003]).Apparent permeability was obtained according to the equation Papp = (dQ/dt)/(A × C0), where dQ/dt is the mass transport rate (determined from the slope of the amount transported vs. time plot), A is the surface area of the monolayer, and C0 is the initial concentration of YL-IPA08 in the donor chamber ([Suzuki et al., 2003]). The efflux ratio was calculated for each study using the following equation: […] = Papp(B–A)/Papp(A–B), where Papp(B–A) and Papp(A–B) represent apparent drug permeability in the B to A and A to B direction, respectively. An efflux ratio greater than 2 indicates net efflux.

[5] = in vitro; conditions: human, Caco-2
Method: as §1, §2

[6] = Prediction of therapeutic human plasma concentration from Kp,uu; conditions: C b,u,human set to 4.9 pg/ml, rat K p,uu, human unbound fraction
Text: K p,uu in the current investigation is critical to link the PD of in vitro and in vivo results (see the result part). What is more important is that K p,uu is often preserved across species ([Di et al., 2013]). Human K p,uu can be estimated using that of rat ( Kp,uu,human≈Kp,uu,rat ). Thus, unbound drug concentration in human brain can be calculated by using the rat K p,uu, rat times the human unbound plasma concentration [ Cb,u,human≈Kp,uu,rat ×Cp,u,human ]. At the current stage, if C b,u,human (4.9 pg/ml) was set as the in vitro TPSO-binding activity concentration for the onset efficacy, therapeutic human plasma concentration would be around 27.2 ng/ml according to the calculation.

[7] = test system: forced swim rats; parameters: method as in Zhang et al., 2017; conditions: ref Zhang et al., 2017, cited from earlier work
[8] = in vitro; type: in vitro ADME; conditions: rat
Method: The fraction of unbound YL-IPA08 in plasma and liver microsomes of rat and human, and brain homogenates of rat were determined utilizing Rapid Equilibrium Dialysis method ([Waters et al., 2008]). Rat brain homogenate was harvested in 4-fold volume (w/v) of PBS (pH 7.4). YL-IPA08 were spiked into fresh plasma, rat brain homogenate, liver microsomes (0.2 mg/ml protein) at concentration of 1 µM, and then dialyzed against biomatrices on a shaker at 37°C for 4 h. To avoid the high non-specific binding of YL-IPA08, 0.01% Tween 80 was added in the incubation mixture. At the end of the incubation, protein was precipitated with acetonitrile (containing IS) and analyzed by LC-MS/MS. Phenacetin, quinidine, and warfarin were selected as positive control for the protein binding test.
The unbound fraction of YL-IPA08 in plasma or liver microsomes (ƒu,x) was calculated as shown in Eq. 2, and unbound fraction in the tissue homogenate (ƒu,b) was calculated according to Eq. 3. fu,x = Concbuffer chamber/Concplasma/liver microsomes chamber (2) fu,b = Concbuffer chamber/Concbrain homogenate chamber (3) The measured unbound fractions would be higher when a tissue is homogenized and diluted in buffer, the unbound fractions in an undiluted tissues (ƒu,brain) were calculated using Eq. 4 ([Kalvass and Maurer, 2002]). Undiluted fu,brain=1/D/((1/fu,brain homogenate)−1)+1/D (4) Where D represents the fold of dilution factor in brain homogenates.

[9] = Pilot enzyme kinetic study in liver microsomes; type: in vitro ADME
Text: Since identification of F a, F g and F h is of importance to mechanistic understanding the systemic exposure, the related efficacy, and the potent drug-drug interactions, a number of in vivo and in vitro models have been developed to elucidate F a, F g and F h. As for in vitro methods, liver microsomes, S9 or hepatocytes are all well accepted for the generation of hepatic clearance and F h via in vitro-in vivo extrapolation (IVIVE) ([Houston and Carlile, 1998]). Furthermore, functionally mature enterocytes mainly express CYPs and UGTs. Among UGT isoforms, UGT1A8 and UGT1A10 show gut-specific expression patterns ([Kaminsky and Zhang, 2003]; [Court et al., 2012]). However, the achievement of intestinal clearance and (F g) from intestinal microsomes is limited by a lack of consensus on the appropriate scaling factors and a low availability of high-quality tissue. In the present study, in vitro metabolic stability of YL-IPA08 was performed in liver microsomes and intestinal microsomes of rat and human in the presence of NADPH and UDPGA to identify the metabolizing enzyme, organ, and species difference. […] UGT is not involved in the depletion of YL-IPA08. Although the CYP-mediated elimination in HIM and RIM were also observed, with great difference of enzyme expression level between liver and gut, the contribution of intestinal metabolism to the oral bioavailability is hard to define. […]

[10] = Aqueous solubility / BCS class; type: physicochemical

Compound `CCN(Cc1ccccn1)C(=O)Cc1c(-c2ccc(Cl)c(Cl)c2)nc2cc(C)ccn12` [YL-IPA08] has a percent of remaining [1] of 100.00%, a Plasma concentration ([2]; 0.5 h) of 111.40 ± 22.00 ng/mL and a Plasma concentration ([2]; 1 h) of 101.93 ± 40.76 ng/mL. It also gave a Plasma concentration ([2]; 2 h) of 91.33 ± 38.19 ng/mL, a Plasma concentration ([2]; 4 h) of 41.78 ± 20.79 ng/mL and a Plasma concentration ([2]; 6 h) of 12.85 ± 4.33 ng/mL. The Plasma concentration ([2]; 8 h) was 5.62 ± 1.64 ng/mL, the Plasma concentration ([2]; 12 h) was 1.98 ± 0.88 ng/mL and the “F a F g” value ([2]; Sprague-Dawley (SD)) was 22%. It also gave a concentration at 0.5 h ([3]; SD, Plasma concentration) of 77 ± 22.7 ng/mL, a concentration at 1 h ([3]; SD, Plasma concentration) of 75.5 ± 26.7 ng/mL and a concentration at 2 h ([3]; SD, Plasma concentration) of 78.3 ± 38.3 ng/mL. It also gave a concentration at 4 h ([3]; SD, Plasma concentration) of 34.1 ± 13.6 ng/mL, a concentration at 6 h ([3]; SD, Plasma concentration) of 11.7 ± 3.9 ng/mL and a concentration at 8 h ([3]; SD, Plasma concentration) of 5.23 ± 1.47 ng/mL. The concentration at 12 h ([3]; SD, Plasma concentration) was 1.96 ± 0.66 ng/mL, the AUC ([3]; Sprague-Dawley (SD), AUC) was 441 ± 93 ng·h/mL and the “permeability across Caco-2 cells (in words)” value ([4]; Caco-2) was “high permeability”. The “Concentration, DOB” value ([4]; Caco-2, basolateral donor at time 0) was 8883 ± 436 nM, the “Concentration, DOA” value ([4]; human, Caco-2, 0 min, 10 µM) was 8350 ± 173 nM and the “Concentration, A-B-B-60 min” value ([4]; human, Caco-2, 60 min, 10 µM) was 13 ± 4 nM. The “Concentration, B-A-A-60 min” value ([4]; human, Caco-2, 60 min, 10 µM) was 28 ± 8 nM, the “Concentration, A-B-B-90min” value ([4]; human, Caco-2, 90 min, 10 µM) was 36 ± 25 nM and the “Concentration, B-A-A-90min” value ([4]; human, Caco-2, 90 min, 10 µM) was 68 ± 27 nM. For the same compound, the “Concentration, A-B-A-120 min” value ([4]; human, Caco-2, 120 min, 10 µM) was 1755 ± 135 nM, the “Concentration, A-B-B-120 min” value ([4]; human, Caco-2, 120 min, 10 µM) was 50 ± 17 nM and the “Concentration, B-A-A-120 min” value ([4]; human, Caco-2, 120 min, 10 µM) was 105 ± 14 nM. For the same compound, the “Concentration, B-A-B-120 min” value ([4]; human, Caco-2, 120 min, 10 µM) was 2598 ± 360 nM, the “P appA-B” value ([4]; human, Caco-2, 120 min, 10 µM) was 3.99 × 10^–6 cm/s and the “P appB-A” value ([4]; human, Caco-2, 120 min, 10 µM) was 2.63 × 10^–6 cm/s. It also gave a Papp A→B at 120 min, 10 μM [5] of 3.99 ± 1.46 ×10⁻⁶ cm/s, a Papp B→A at 120 min, 10 μM [5] of 2.63 ± 0.43 ×10⁻⁶ cm/s and an efflux ratio at 120 min, 10 μM [5] of 0.66. The “predicted therapeutic human plasma concentration” value [6] was roughly 27.2 ng/mL, the antidepressant-like effect ([7]; forced swim rats, 1, 3, and 10 mg/kg) was “marked acute antidepressant-like effects” and the “antidepressant-like and anxiolytic-like effects” value ([7]; series of rat behavior models, 1–10 mg/kg oral dosing) was “significant antidepressant-like and anxiolytic-like effects”. The “Concentration, Cbuffer chamber” value ([8]; 4 h, 1 µM) was 168.00 ± 5.66 nM, the “Concentration, Cplasma/microsome chamber” value ([8]; 4 h, 1 µM) was 393.00 ± 18.03 nM and the “Protein biding (%)” value ([8]; 4 h, 1 µM) was 57.14 ± 2.92%. The fraction unbound at 4 h, 1 µM ([8]; microsomes) was 0.428, the K m [9] was 1 to 3 µM and the “aqueous solubility (in words)” value [10] was “high aqueous solubility”. The BCS class ([10]; from high aqueous solubility and high permeability) was “BCS class I”.
